The assay deals with T1, PDK1_1-556 (Homo sapiens, UniProt O15530).
T1 construct: effect of HYG8 on the thermal stability (ΔTm) of PDK1_1-556 (H) and PDK1_50-359 (I); His (N); made in house; host or cells: Sf9 insect cells (baculovirus)
T1 sequence (O15530 1-556): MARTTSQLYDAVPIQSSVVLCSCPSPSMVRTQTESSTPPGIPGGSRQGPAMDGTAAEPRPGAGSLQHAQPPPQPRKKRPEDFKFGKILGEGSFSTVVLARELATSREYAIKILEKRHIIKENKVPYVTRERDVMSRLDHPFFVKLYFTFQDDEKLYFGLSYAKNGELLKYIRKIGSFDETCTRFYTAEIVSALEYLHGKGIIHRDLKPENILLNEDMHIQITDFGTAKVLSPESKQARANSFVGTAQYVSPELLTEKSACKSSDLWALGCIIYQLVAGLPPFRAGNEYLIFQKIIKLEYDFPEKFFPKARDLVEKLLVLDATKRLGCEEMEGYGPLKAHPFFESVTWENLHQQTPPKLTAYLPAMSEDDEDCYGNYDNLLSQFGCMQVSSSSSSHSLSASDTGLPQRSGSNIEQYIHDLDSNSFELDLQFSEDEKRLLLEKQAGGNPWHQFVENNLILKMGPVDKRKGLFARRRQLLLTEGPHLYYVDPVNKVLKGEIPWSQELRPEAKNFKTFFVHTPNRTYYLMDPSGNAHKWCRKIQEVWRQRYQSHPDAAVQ
Description: PDK1-mediated activation/phosphorylation of Akt and SGK in vitro (cascade format, Western blot). In kind it is biochemical. Particulars: absence of PIP3, HYG8 1 μM. On the procedure: PDK1 activity was also assessed in a cascade format that measures the ability of PDK1 to activate its substrates GST-ΔN-SGK [S422D], GST-Akt [S473D] and GST-Akt ΔPH [S473D], as previously performed ([24], [28]). SGK and Akt proteins mutated at the HM phosphorylation site to Asp can be activated by phosphorylation at the activation loop by PDK1. In brief, we preincubated SGK or Akt (0.5 μg) with 10 ng or 100 ng of PDK1 at room temperature (22°C) in a buffer containing 50 mM Tris pH 7.5, 0.05 mg/ml BSA, 0.1% β-mercaptoethanol, 10 mM MgCl2, 100 μM ATP (20 μl). We measured the activity of SGK or Akt by adding 30 μl buffer containing the polypeptide substrate KK-Crosstide ([…]; 100 μM) and [γ^32P]ATP (100 μM). […]
PDK1 activity was also measured by incubating PDK1 with protein kinase substrates and measuring their phosphorylation by Western blot using phospho-specific antibodies to the activation loop phosphorylation site, essentially as previously performed ([24]), with the modification that the secondary antibodies were fluorescent for improved quantification. […] The basal phosphorylation of substrates was determined in the absence of PDK1, while “maximal” phosphorylation corresponds to the phosphorylation of substrates with excess PDK1 (10 nM PDK1 for Akt/PKB substrates and 1 nM PDK1 for SGK). […] Fluorescent signals were measured using Odyssey Fc (Licor). […]
(A western blot detects proteins with antibodies after separation by electrophoresis.)

The record followed here is article PMC7614687, “Modulation of the substrate specificity of the kinase PDK1 by distinct conformations of the full-length protein*” (Science signaling, 2023).

In the case of `O=C(O[C@H]1[C@@H](OP(=O)(O)O)[C@H](OP(=O)(O)O)[C@@H](OP(=O)(O)O)[C@H](OP(=O)(O)O)[C@H]1OP(=O)(O)O)c1ccccc1` [HYG8, 2-O-benzoyl-IP5], the “activation of Akt and Akt ΔPH by PDK1” value is reported as “selectively inhibited”; the “activation of SGK by PDK1” value is reported as “did not inhibit”.
